Molecules are shown by their SMILES. ≈ marks a conversion by molar mass, not a printed value. Bounds are passed on as bounds.

This assay concerns Mycobacterium tuberculosis. Description: Antitubercular activity against Mycobacterium tuberculosis H37Rv after 2 days by mycobacteria growth indicator tube system. It is filed as functional. The conditions noted are these: 48 h.
For `CC[C@@H](CO)NCCN[C@@H](CC)CO` [ETHAMBUTOL], the MIC came to 2 µg/mL (≈ 9.79 µM).
`CC(CNCc1ccccc1)NCc1ccccc1` (stereo not drawn) had an MIC of over 64 µg/mL.
`c1ccc(CNCCNCc2ccccc2)cc1` returned an MIC of over 64 µg/mL.

As a reminder, the MIC is the least concentration at which growth counts as inhibited. The low end stands for greater potency, the high end for weaker potency.
